This passage reports IC50 results from BindingDB's records for doi:10.1016/0960-894X(95)00530-0 (1995).

SMILES strings stand for the structures. A value given as a limit tells only on which side of the number the result lay.

The assay concerns the target Gastrin/cholecystokinin type B receptor (Cavia porcellus). The assay can be described thus: Displacement of [125I]-BH CCK-8S from Cholecystokinin type B receptor in guinea pig cortex. (In general: In a radioligand displacement assay an active substance lowers the binding of a labelled ligand.)
For `Cc1cccc(NC(=O)NC2N=C(N3CCNCC3)c3ccccc3N(C)C2=O)c1` (centres undefined) [1-(1-Methyl-2-oxo-5-piperazin-1-yl-2,3-dihydro-1H-benzo[e][1,4]diazepin-3-yl)-3-m-tolyl-urea], the IC50 was 880 nM.

Regarding `Cc1cccc(NC(=O)N[C@@H]2N=C(c3ccccc3)c3ccccc3N3C[C@H](C)N=C23)c1` [1-((2S,4R)-2-Methyl-6-phenyl-2,4-dihydro-1H-3,5,10b-triaza-benzo[e]azulen-4-yl)-3-m-tolyl-urea], the IC50 was 1.8 nM.

In turn, `CCCN1C(=O)C(NC(=O)Nc2cccc(C(F)(F)F)c2)N=C(N2CCN(C)CC2)c2ccccc21` (centres undefined) [1-[5-(4-Methyl-piperazin-1-yl)-2-oxo-1-propyl-2,3-dihydro-1H-benzo[e][1,4]diazepin-3-yl]-3-(3-trifluoromethyl-phenyl)-urea] came in with an IC50 of 12 nM.

Turning to `Cc1cccc(NC(=O)NC2N=C(N3CCN(C(=O)OC(C)(C)C)CC3)c3ccccc3N(C)C2=O)c1` (centres undefined) [4-[1-Methyl-2-oxo-3-(3-m-tolyl-ureido)-2,3-dihydro-1H-benzo[e][1,4]diazepin-5-yl]-piperazine-1-carboxylic acid tert-butyl ester], the IC50 is > 3000 nM.

As usually defined, the IC50 is the concentration that gives 50% inhibition.
